In patent US20020127281A1, “Stabilized hyrogen peroxide solutions” (priority 2000, published 2002):

Assay: stabilization of peroxy compounds by the present stabilizer system
Type: physicochemical
From the text: Trace amounts of peroxy compounds stabilized with a hydrogen peroxide stabilizer, especially diethylene triamine penta(methylene phosphonic acid) or 1-hydroxyethylidene-1,1-diphosphonic acid may be utilized as a preservative for drugs, eyewashes, or other solutions containing an active ingredient designed to be used in the ocular environment. The preservative according to the present invention may be used in the ocular environment. Furthermore, the preservative according to the present invention may be used in any ophthalmic solution as long as the active ingredient in that solution is compatible with trace amounts of the peroxy compounds. Also, virtually any peroxy compound may be used so long as it is hydrolyzed in water to produce hydrogen peroxide. Examples of such sources of hydrogen peroxide, which provide an effective resultant amount of hydrogen peroxide, include sodium perborate decahydrate, sodium peroxide and urea peroxide. […] Hydrogen peroxide concentrations from about 2 ppm to about 1000 ppm are useful in the present invention. Therefore, peroxy compounds that generate hydrogen peroxide from about 2 ppm to about 1000 ppm are useful in the present invention. More preferably, the concentration of hydrogen peroxide from is about 10 ppm to about 1000 ppm.

SMILES: CC(=O)OO [peracetic acid]
- stabilization by the present system: cannot be stabilized
